In the NIST ThermoML archive (doi:10.1016/j.jct.2015.08.014):
Numbers after ± are expanded uncertainties.

Test: xn = mol fraction of the nth substance listed
Conditions: 298.15 K, 100 kPa, Liquid; for viscosity: Capillary tube (Ostwald / Ubbelohde) method; for electrical conductivity: Alternating current cell with electrodes

CCCC[N+]1(C)CCCC1.N#CN=C=[N-] [1-butyl-1-methylpyrrolidinium dicyanamide] + O=C1CCCO1
Conditions | viscosity [mPa·s]
x1 = 0.4985 | 11.38 ± 0.25
x1 = 0.6954 | 18.62 ± 0.42
x1 = 0.9013 | 28.31 ± 0.64
x1 = 1 | 33.71 ± 0.77

electrical conductivity [S/m]
Conditions | Frequency=0.0005 MHz | Frequency=0.001 MHz | Frequency=0.0015 MHz | Frequency=0.002 MHz | Frequency=0.0025 MHz | Frequency=0.003 MHz | Frequency=0.00347222 MHz | Frequency=0.004 MHz | Frequency=0.00446429 MHz | Frequency=0.005 MHz
x1 = 0.0463 | 1.46 ± 0.026 | 1.47 ± 0.026 | 1.47 ± 0.026 | 1.47 ± 0.026 | 1.47 ± 0.026 | 1.47 ± 0.026 | 1.47 ± 0.026 | 1.47 ± 0.026 | 1.47 ± 0.026 | 1.47 ± 0.026
x1 = 0.0987 | 2.2 ± 0.027 | 2.2 ± 0.027 | 2.21 ± 0.027 | 2.21 ± 0.027 | 2.21 ± 0.027 | 2.21 ± 0.027 | 2.21 ± 0.027 | 2.21 ± 0.027 | 2.21 ± 0.027 | 2.21 ± 0.027
x1 = 0.1449 | 2.51 ± 0.026 | 2.51 ± 0.026 | 2.51 ± 0.026 | 2.51 ± 0.026 | 2.51 ± 0.026 | 2.51 ± 0.026 | 2.51 ± 0.026 | 2.51 ± 0.026 | 2.51 ± 0.026 | 2.51 ± 0.026
x1 = 0.1859 | 2.65 ± 0.027 | 2.65 ± 0.027 | 2.66 ± 0.027 | 2.66 ± 0.027 | 2.67 ± 0.027 | 2.67 ± 0.027 | 2.67 ± 0.027 | 2.67 ± 0.027 | 2.67 ± 0.027 | 2.67 ± 0.027
x1 = 0.2493 | 2.606 ± 0.026 | 2.608 ± 0.026 | 2.61 ± 0.026 | 2.61 ± 0.026 | 2.611 ± 0.026 | 2.611 ± 0.026 | 2.612 ± 0.026 | 2.612 ± 0.026 | 2.612 ± 0.026 | 2.612 ± 0.026
x1 = 0.3029 | 2.526 ± 0.025 | 2.53 ± 0.026 | 2.53 ± 0.026 | 2.54 ± 0.026 | 2.54 ± 0.026 | 2.54 ± 0.026 | 2.54 ± 0.026 | 2.54 ± 0.026 | 2.54 ± 0.026 | –
x1 = 0.3845 | 2.35 ± 0.024 | 2.36 ± 0.024 | 2.36 ± 0.024 | 2.36 ± 0.024 | 2.36 ± 0.024 | 2.36 ± 0.024 | 2.36 ± 0.024 | 2.36 ± 0.024 | 2.36 ± 0.024 | –
x1 = 0.4985 | 2.08 ± 0.021 | 2.08 ± 0.021 | 2.08 ± 0.021 | 2.08 ± 0.021 | 2.08 ± 0.021 | 2.08 ± 0.021 | 2.08 ± 0.021 | 2.08 ± 0.021 | 2.08 ± 0.021 | –
x1 = 0.6954 | 1.67 ± 0.017 | 1.68 ± 0.017 | 1.68 ± 0.017 | 1.68 ± 0.017 | 1.68 ± 0.017 | 1.68 ± 0.017 | 1.68 ± 0.017 | 1.68 ± 0.017 | 1.68 ± 0.017 | –
x1 = 0.9013 | 1.39 ± 0.014 | 1.39 ± 0.014 | 1.39 ± 0.014 | 1.39 ± 0.014 | 1.39 ± 0.014 | 1.39 ± 0.014 | 1.39 ± 0.014 | 1.39 ± 0.014 | 1.39 ± 0.014 | –
x1 = 1 | 1.315 ± 0.013 | 1.316 ± 0.013 | 1.316 ± 0.013 | 1.316 ± 0.013 | 1.317 ± 0.013 | 1.317 ± 0.013 | 1.317 ± 0.013 | 1.317 ± 0.013 | 1.317 ± 0.013 | –
